Results on 13 molecules are retold here after PubChem BioAssay (NCI).

Among the test systems are NCI-H522 lung; OVCAR-3 ovarian; MDA-MB-231 breast; SN12C renal; OVCAR-8 ovarian; SK-MEL-28 melanoma; A549 NSCLC; EKVX NSCLC; SF-295 CNS; PC-3 prostate; NCI/ADR-RES ovarian; BT-549 breast; HOP-92 NSCLC.
What all share (test): NCI anticancer screen, dose series, 48 h

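48-hour exposure; five concentrations; linearly interpolated endpoints. TGI denotes the concentration required for complete inhibition of growth.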

In the case of `CCn1c(SCC(=O)NNC(=S)Nc2ccc(Cl)cc2)nc2ccccc2c1=O`, the TGI in the assay with NCI-H522 lung, with OVCAR-3 ovarian, in the assay with MDA-MB-231 breast, with SN12C renal, with OVCAR-8 ovarian and in the assay with SK-MEL-28 melanoma was above 100 µM throughout. Also, the TGI in the assay with A549 NSCLC, with EKVX NSCLC, in the assay on SF-295 CNS, in the assay with PC-3 prostate, with NCI/ADR-RES ovarian and with BT-549 breast was above 100 µM throughout.

On to `Clc1ccc(/C=C/c2nc(-c3ccc(Cl)cc3)cn3c2nc2ccccc23)cc1`, for which the TGI in the assay with OVCAR-3 ovarian, with MDA-MB-231 breast, in the assay with SN12C renal, with SK-MEL-28 melanoma, in the assay on A549 NSCLC and in the assay on EKVX NSCLC was above 100 µM each time. The TGI with HOP-92 NSCLC, in the assay on PC-3 prostate, with NCI/ADR-RES ovarian and in the assay with BT-549 breast was above 100 µM in each case.

For the molecule `c1ccc(N=C2C(=Nc3ccccc3)N(C3CCCCC3)C(=NC3CCCCC3)N2c2ccccc2)cc1`, the TGI in the assay on MDA-MB-231 breast, in the assay on OVCAR-8 ovarian, with SK-MEL-28 melanoma, in the assay with A549 NSCLC, in the assay with EKVX NSCLC and in the assay with HOP-92 NSCLC was above 100 µM each time. Besides, the TGI with PC-3 prostate and in the assay with BT-549 breast was above 100 µM each time.

Consider `CCCC(=O)n1[nH]c(=O)n(C(C)(C)C)c1=O`, for which the TGI in the assay with OVCAR-3 ovarian, in the assay with MDA-MB-231 breast, in the assay on SN12C renal, with OVCAR-8 ovarian, with SK-MEL-28 melanoma and in the assay with A549 NSCLC was above 100 µM throughout. The TGI in the assay on EKVX NSCLC, in the assay on SF-295 CNS, with PC-3 prostate, with NCI/ADR-RES ovarian and with BT-549 breast was above 100 µM in each case.

`c1ccc2c(c1)ncn2CCn1ccnc1`: the TGI in the assay with NCI-H522 lung, in the assay with OVCAR-3 ovarian, in the assay with MDA-MB-231 breast, in the assay with SN12C renal, with OVCAR-8 ovarian and in the assay on SK-MEL-28 melanoma was above 100 µM each time. Moreover, the TGI with A549 NSCLC, with EKVX NSCLC, in the assay on SF-295 CNS, in the assay on PC-3 prostate, in the assay with NCI/ADR-RES ovarian and with BT-549 breast was above 100 µM each time.

In the case of `Cc1ccc(N(C)S(=O)(=O)c2ccccc2)cc1`, the TGI in the assay with NCI-H522 lung, in the assay with OVCAR-3 ovarian, in the assay on MDA-MB-231 breast, in the assay with SN12C renal, with OVCAR-8 ovarian and in the assay with SK-MEL-28 melanoma was above 100 µM each time. The TGI with A549 NSCLC, with EKVX NSCLC, with SF-295 CNS, in the assay with PC-3 prostate, in the assay on NCI/ADR-RES ovarian and with BT-549 breast was above 100 µM each time.

In the case of `CCNC(=S)Nc1c(C#N)c2n(c1C(=O)OCC)CCCCC2`, the TGI in the assay on MDA-MB-231 breast, in the assay on OVCAR-8 ovarian, in the assay with SK-MEL-28 melanoma, in the assay on EKVX NSCLC, in the assay with HOP-92 NSCLC and in the assay with SF-295 CNS was above 100 µM each time. Besides, the TGI with PC-3 prostate, in the assay on NCI/ADR-RES ovarian and with BT-549 breast was above 100 µM each time.

For the molecule `CC(=O)OCC1OC(N2C(=O)CC(N)=Nc3ccccc32)C(OC(C)=O)C(OC(C)=O)C1OC(C)=O` (stereo unspecified), the TGI in the assay on OVCAR-3 ovarian, in the assay with MDA-MB-231 breast, in the assay with SN12C renal, in the assay on OVCAR-8 ovarian, in the assay with SK-MEL-28 melanoma and with A549 NSCLC was above 100 µM each time. Moreover, the TGI in the assay on EKVX NSCLC, in the assay on HOP-92 NSCLC, with SF-295 CNS, with PC-3 prostate, in the assay on NCI/ADR-RES ovarian and with BT-549 breast was above 100 µM in each case.

As for `CCSC1=C(C#N)C2(CCCCC2)C2=C(CC(C)(C)CC2=O)N1`, the TGI in the assay with NCI-H522 lung, with MDA-MB-231 breast, in the assay on SN12C renal, with OVCAR-8 ovarian, in the assay on SK-MEL-28 melanoma and in the assay on A549 NSCLC was above 100 µM each time. In addition, the TGI in the assay with EKVX NSCLC was 68.4 µM; in the assay with HOP-92 NSCLC, 43.1 µM; with PC-3 prostate, above 100 µM; in the assay on NCI/ADR-RES ovarian it was above 100 µM; in the assay on BT-549 breast it was 60.1 µM.

For `Clc1cc2nnn(C3CCCCO3)c2cc1Cl` (stereo unspecified), the TGI in the assay on NCI-H522 lung, in the assay with OVCAR-3 ovarian, in the assay on MDA-MB-231 breast, in the assay on SN12C renal, in the assay on OVCAR-8 ovarian and with A549 NSCLC was above 100 µM throughout. Further, the TGI is 79.4 µM in the assay on EKVX NSCLC; above 100 µM in the assay on SF-295 CNS; above 100 µM in the assay with PC-3 prostate; above 100 µM in the assay with NCI/ADR-RES ovarian; above 100 µM with BT-549 breast.

Turning to `O=C(OCC(Cl)(Cl)Cl)N1CC[C@@H](C2CCCCC2)C1`, the TGI was 43.1 µM with NCI-H522 lung; 32.2 µM in the assay on OVCAR-3 ovarian; above 100 µM in the assay with MDA-MB-231 breast; above 100 µM in the assay on SN12C renal; above 100 µM in the assay with A549 NSCLC; 51.7 µM with EKVX NSCLC. The TGI was 38.9 µM with SF-295 CNS, 46.3 µM in the assay with PC-3 prostate, 32.9 µM in the assay on NCI/ADR-RES ovarian and above 100 µM in the assay on BT-549 breast.

For the molecule `O=C(O)c1cccc(S(=O)(=O)NN2C(=O)CSC2c2ccccc2Cl)c1` (stereo unspecified), the TGI in the assay with NCI-H522 lung, in the assay with OVCAR-3 ovarian, in the assay on MDA-MB-231 breast, in the assay with SN12C renal, with OVCAR-8 ovarian and with SK-MEL-28 melanoma was above 100 µM in each case. The TGI in the assay with A549 NSCLC, with EKVX NSCLC, in the assay with HOP-92 NSCLC, with SF-295 CNS, with PC-3 prostate and with BT-549 breast was above 100 µM each time.

Consider `CC1C2CC(CC2O)C1(C)C` (stereo unspecified), for which the TGI in the assay with NCI-H522 lung, in the assay with OVCAR-3 ovarian, in the assay with MDA-MB-231 breast, in the assay on SN12C renal, with OVCAR-8 ovarian and in the assay with SK-MEL-28 melanoma was above 100 µM in each case. Also, the TGI in the assay on A549 NSCLC, with HOP-92 NSCLC, in the assay on SF-295 CNS, in the assay with PC-3 prostate and in the assay on BT-549 breast was above 100 µM throughout.
